Assay results: patent US4075409A, “Benzophenone derivatives” (Cassella Farbwerke Mainkur Aktiengesellschaft, priority 1973, dated 1978)
Counter-ions that a name gives are not always drawn.

Legend:
albino mice = test: climbing test, central depressant (sedative) action on albino mice; format: in vivo; conditions: Mus musculus, po, read-out: Central depressant action in % (percentage of animals which no longer embark on the climbing work); for responders at 8 mg/kg: 8.0 mg/kg orally
Experimental: The pharmacological examination of the central depressant (sedative) action was carried out on albino mice with the aid of the climbing test described by P. K. KNEIP: Arch. int. pharmacodyn 126, 238 (1960) and R. DOMENJOZ and W. THEOBALD: Arch. int. pharmacodyn 120, 450 (1959).
In the final column of the table, the percentage of the experimental animals which no longer embark on the climbing work, which is normally readily undertaken, is given under the heading "Central depressant action in %".
(§1) The benzophenone derivatives were tested in the form of their hydrochlorides.

[1] = LD50 mice intraperitoneally; conditions: mouse, in vivo, ip, benzophenones as hydrochlorides
Experimental: as §1

SMILES	responders at 8 mg/kg (albino mice; as hydrochloride) [%]	LD50 [1] [mg/kg]	responders at 10 mg/kg (albino mice; 10.0 mg/kg orally, as hydrochloride) [%]	responders at 4 mg/kg (albino mice; 4.0 mg/kg orally, as hydrochloride) [%]	responders at 70 mg/kg (albino mice; 70 mg/kg orally, comparison preparation) [%]
CC(Cc1ccccc1)NCC(=O)N(C)c1ccc([N+](=O)[O-])cc1C(=O)c1ccccc1 (racemic) [DL-2-(5-Phenyl-N-methyl-4-methyl-3-aza-pentanamido)-5-nitrobenzophenone hydrochloride]	50	44	–	–	–
CC(Cc1ccccc1)NCC(=O)N(C)c1ccc(Cl)cc1C(=O)c1ccccc1Cl (racemic) [DL-2-(5-phenyl-N-methyl-4-methyl-3-aza-pentanamido)-2',5-dichlorobenzophenone hydrochloride]	70	24	–	–	–
CC(Cc1ccccc1)NCC(=O)N(C)c1ccc(Cl)cc1C(=O)c1ccccc1 (racemic) [DL-2-(5-phenyl-N-methyl-4-methyl-3-aza-pentanamido)-5-chlorobenzophenone hydrochloride]	40	240	–	–	–
CCOC(=O)NCC(=O)N(C)c1ccc([N+](=O)[O-])cc1C(=O)c1ccccc1 [2-(3-Ethoxycarbonyl)-N-methyl-3-aza-propanamido)-5-nitro-benzophenone]	–	500	70	–	–
CCOC(=O)NCC(=O)N(C)c1ccc(Cl)cc1C(=O)c1ccccc1Cl [2-(3-Ethoxycarbonyl-N-methyl-3-aza-propanamido)-2',5-dichlorobenzophenone]	90	240	–	–	–
CN(CC(=O)Nc1ccc(Cl)cc1C(=O)c1ccccc1)C(=S)Nc1ccccc1 [2-(3-Phenylaminothiocarbonyl-3-aza-3-methyl-propanamido)-5-chlorobenzophenone]	50	> 1000	–	–	–
CCOC(=O)NCC(=O)N(C)c1ccc(Cl)cc1C(=O)c1ccccc1.Cl [2-(3-ethoxycarbonyl-N-methyl-3-aza-propanamido)-5-chlorobenzophenone hydrochloride]	–	270	–	30	–
CCCCNC(=O)CCN(CCCC)CC(=O)N(C)c1ccc([N+](=O)[O-])cc1C(=O)c1ccccc1 [2-(5-n-Butylaminocarbonyl-N-methyl-3-n-butyl-3-aza-pentanamido)-5-nitro-benzophenone]	50	500	–	–	–
CCCC(C)(COC(N)=O)COC(N)=O [Meprobamate, reference compound]	–	–	–	–	50
